Results published in PMC4780071, “Discovery of a Biological Mechanism of Active Transport through the Tympanic Membrane to the Middle Ear” (Scientific Reports, 2016).

Legend:
[1] = tested on: tympanic membrane (TM) of rats with active bacterial OM; experiment: Comparative TM transit of individual phage clones in vivo (plaque assay of ME fluid); set-up: species or system rat (male Sprague-Dawley), NTHi-induced OM; settings: for phage particles in the ME after 1 hr incubation of the peptide-phage on the TM: 10^10 PFUs applied, mean of six animals; for TM-transit rate into the ME compared with WT phage and the other clones: phage clone displaying the peptide, 1 × 10^10 phage particles on one TM for 1 hr, six rats, plaque assay of ME fluid
Description: (§1) All animal experiments were performed in strict accordance to the Guide for the Care and Use of Laboratory Animals of the National Institutes of Health (NIH) and the policies of the Veterans Affairs San Diego Healthcare Systems, CA. Experiments were carried out in strict accordance with an approved Institutional Animal Care and Use Committee (IACUC) protocol. Male Sprague–Dawley rats were purchased from The Jackson Laboratory. The animals were anesthetized with an intraperitoneal injection of 1.0–1.5 ml per 200–300 g bodyweight of rodent cocktail (40 mg/Kg Ketamine, 10 mg/Kg Xylasine, and 0.75 mg/Kg Acepromazine). The skin of the neck was shaved and treated with Povidone antiseptic solution. OM was induced by infecting the ME with nontypeable Haemophilus influenzae (NTHi) in a laboratory setting by surgically exposing the bulla via a ventral approach through a vertical midline incision made in the neck. A 25-gauge needle was used to fenestrate the bulla and inject ~50 μL saline solution containing 10^4 CFU/mL NTHi bacteria strain 3655 (biotype II, originally isolated from the ME of a pediatric OM patient). Following the inoculation, the opening was closed and incision was stapled. The TMs were visually confirmed to be intact after surgery and the rats were given Lactated Ringer’s solution and buprenorphine subcutaneously postoperatively. For in vivo phage display experiments, rats were used at two days post NTHi inoculation. The ears were examined otoscopically at this time to confirm signs of active infection and the presence of fluid in the ME cavity.
After three or ten rounds of subtraction/selection in strategies 1 and 2 respectively, single blue plaques were selected at random for preparation of purified stocks and sequencing as recommended by the manufacturer (New England Biolabs, Cambridge, MA, USA). Phage transit efficiency was determined by incubating 1 × 10^10 PFUs (plaque-forming units) of specific phage over the TMs of rats in vivo for 1 hr. At least six animals per time point were used. Incubation, washings, and elution conditions were performed as above. The phage transiting efficiency was determined by comparing the number of plaque-forming phage recovered from the ME fluid (output) by the number of plaque-forming phage in the input (TM side).
We quantified the rate of TM transit into the ME for all peptides identified by Strategy 1 (Fig. 3A) and those from Strategy 2 (Fig. 3B) that appeared at a frequency of three or more in our sequenced sample (Tables 1 and 2). Individual phage clones were amplified and 1 × 10^10 phage particles were applied onto one TM of six anesthetized rats for 1 hr. The number of phage particles recovered from the ME was then compared to that observed for WT (untargeted) phage. […] On the other hand, the peptide sequence of BPT-4 was clearly distinct in the phylogeny analysis.

[2] = tested on: TMs of ex vivo MEs from rats undergoing OM; experiment: Ex vivo ME transport: dependence on time after death and temperature; set-up: species or system rat; settings: for phage recovery through ex vivo TMs: warmed to 37 °C, 1 hr with phage
Description: In order to learn more about the pharmacokinetics mechanisms of transport, we tested the effect of varying metabolism or temperature on transport rates. […] MEs were removed intact from deeply anesthetized rats undergoing OM as described above. […] Translocation is also temperature dependent. […] It is well known that endocytosis is inhibited at 4 °C[36][37].

[3] = tested on: healthy (uninfected) tympanic membrane; experiment: TMT-3 phage transport across TMs of uninfected MEs; format: in vivo, rat; settings: n = 6, data not shown
Excerpt: To establish the specificity of translocation, we assessed whether a synthetic TMT-3 peptide would interfere with internalization of corresponding peptide-bearing phage into the ME. […] In addition, TMT-3 phage was applied onto the TMs of uninfected MEs (n = 6). We observed that for healthy TMs, phage transport into the ME was quite limited when compared to the infected TM (data not shown). This could be attributed to limitations in efficient phage transport when fluid is not present on the other side of the TM. Alternatively, it is possible that the transit mechanism employed is only present in infected TMs.

[4] = tested on: tympanic membrane (TM) of rats with OM; experiment: Transport kinetics and saturation of TMT-3 phage in vivo; set-up: species or system rat (male Sprague-Dawley), NTHi-induced OM; settings: for phage recovery from the ME: at least six animals per time point
Description: as §1
The phage peptide with one of the highest transport capacities measured above TMT-3 SADSTKTTHLTL, was selected for further transport specificity, kinetics and competitive binding assays. To evaluate the kinetics of transport of the TMT-3 single phage clone, a TMT-3 phage preparation was incubated on the TM over a 1, 2 or 4 hr time period at 1 × 10^10 PFU concentration. At least six animals per time point were used. Incubation, washing, and elution conditions were performed as above in rats with OM. The level of phage transport was evaluated by determining the titer (PFUs) of TMT-3 phage present in the ME fluid. To assess transport saturation, the recovery of TMT-3 phage from the ME was compared following application of 10^10 versus 10^12 phage particles to the TM for 1 hr. The corresponding free peptide SHSADSTKTTHLTLGGG was synthesized by Genscript (Piscataway, NJ, USA) in addition to an untargeted randomized control peptide SHDLSTSATLTHTKGGG (Genscript, Piscataway, NJ, USA) at purity >95%. All peptides were reconstituted in PBS pH, 7.2. For the competition assay TMT-3 phage application to the TM was performed at titer of 10^10 PFUs, as above. However, 1 μM of free peptide was included with the phage.

| Sequence | phage particles in the ME after 1 hr incubation of the peptide-phage on the TM ([1]; 1 hr, rats with OM) | TM-transit rate into the ME compared with WT phage and the other clones [1] | also measured |
| --- | --- | --- | --- |
| DVGAGRWFSDNG [TMT-4] | more than 2 × 10^3 phage particles | highest rates of transport | – |
| SADSTKTTHLTL [TMT-3, transport tests used the phage clone] | more than 2 × 10^3 phage particles | highest rates of transport | ME recovery of phage ex vivo ([2]; 4 °C, 1 hr exposure of the TM to 10^10 PFUs): severely compromised; phage recovery through ex vivo TMs ([2]; TMs stored 12 hrs postmortem at 4 °C): No recovery; phage recovery through ex vivo TMs ([2]; TMs stored 24 hrs postmortem at 4 °C): No recovery; phage transport into the ME through healthy TMs compared to the infected TM [3]: quite limited; dependence of phage recovery on time on the TM ([4]; 1, 2 and 4 hrs of contact with the infected TM, 1 × 10^10 PFU): exponential increase; dependence of phage recovery on the amount applied (saturation) ([4]; 10^10 versus 10^12 phage particles applied to the TM for 1 hr): increased proportionally with concentration; phage recovery from the ME ([4]; 1 hr of contact with the infected TM, 1 × 10^10 PFU): approximately 10^4 phage particles; phage recovery from the ME ([4]; 4 hrs of contact with the infected TM, 1 × 10^10 PFU): ~10^6 phage particles; recovery from the ME among the six positive phage clones ([1]; 10^10 PFUs, 1 hr, rats with OM): greatest recovery from the ME |
| SDDSRPIAQFAI [TMT-5] | – | highest rates of transport | – |
| TFNPPPPQMPST [BPT-4] | more than 2 × 10^3 phage particles | highest rates of transport | – |
| THPSTKVPGTPA [BPT-3] | more than 2 × 10^3 phage particles | highest rates of transport | – |
| TLSPKMPGGGYW [TMT-2] | more than 2 × 10^3 phage particles | highest rates of transport | – |
